Assay results taken from patent US20120141381A1, “Methods For Loading Contrast Agents Into A Liposome” (Duke University Office of Technology & Venture, priority 2009, published 2012).

Test: Measurement of relaxivity of Gd-HP-DO3A-Dox-LTSL at 1.5T
Type: physicochemical
Settings: free contrast agent
Procedure: T1 of all of the solutions was calculated from the fit of signal intensity vs. inversion time in images obtained with a T1-weighted inversion recovery sequence with variable inversion time (T1=50, 75, 100, 150, 300, 450, 600, 900, 1050 ms). Relaxivity was obtained as the slope of 1/T1 vs. Gd-HP-DO3A concentration. All imaging was performed using a clinical 1.5T MR scanner (Philips Medical Systems, Best, The Netherlands).

For CC(O)CN1CCN(CC(=O)[O-])CCN(CC(=O)[O-])CCN(CC(=O)[O-])CC1.[Gd+3] (stereo not shown) [ProHance®, gadolinium complex of 10-(2-hydroxy-propyl)-1,4,7,10-tetraazacyclododecane-1,4,7-triacetic acid], the “relaxivity (slope of 1/T1 vs concentration)” value was 4.05 ± 0.14 mM⁻¹ s⁻¹.
